{"source": "patent US20240344145A1", "about": "“PHARMACOGENOMICS SCORE TO MAKE DECISIONS ON THERAPY AUGMENTATION IN AML” (University of Florida Research Foundation, Incorporated, priority 2021, published 2024)", "tested_on": "ara-C metabolic pathway genes", "assay": "Association of ara-C pathway SNP genotypes with MRD1, EFS and OS in AML02 (logistic regression and Cox models; also within LDAC and HDAC arms)", "set-up": "species or system human", "details": "within arm of AML02", "from_the_text": "Genomic DNA from patients enrolled in the multi-site St. Jude AML02 trial was genotyped for 155 SNPs in 16 genes of relevance to ara-C pharmacology using sequenom iPlex platform that uses MALDI-TOF based chemistry at University of Minnesota, Biomedical Genomics Center. SNPs were selected based on previously reported studies. For SNPs lacking literature on genetic variation, SNPs were selected to capture LD blocks (European and African ancestry) on a gene. Of 155 SNPs, 1 SNP was excluded due to low call rate (<90%), 47 SNPs were excluded due to minimum allele frequency of less than 5%, 11 SNPs were excluded due to high LD (r^2>0.9) with other SNPs; two SNPs were excluded because of deviation from Hardy-Weinberg equilibrium. Genotype for the COG-AAML0531 cohort for the selected SNPs was obtained using sequenom platform or TaqMan genotyping assays, and for a few SNPs was extracted from the data available on Illumina 2.5 Omni array. Genotype calls from multiple platforms were confirmed across multiple samples randomly collected from the cohort.\nSNP genotype groups in three different modes of inheritance (additive, dominant, and recessive) were tested for association with MRD1 using logistic regression models. Odds ratio (OR) and 95% confidence interval (CI) were calculated for each test. SNPs with association P-value<0.05 were considered significant. Cox-proportional hazard models were used to evaluate association of genotype groups with EFS or OS. Hazard ratio (HR) and 95% CI were calculated for each test. p-value<0.05 was considered statistically significant. Given initial risk group assignments are well-established prognostic factors associated with outcome, outcome association analysis of SNPs with and without adjusting for risk group was also performed to identify SNPs that are associated with outcome independent of risk group.\nSNPs with p<0.15 in risk-adjusted univariate evaluation with clinical endpoints (MRD1, EFS, and OS) were tested for all possible combinations with a maximum of three SNPs per model in multivariable logistic regression models for association with MRD1 and Cox-proportional hazard models for association with EFS and OS. Analysis for up to 3 SNP combinations was restricted due to computational challenges as increasing the maximum number of SNPs per model drastically increases the number of models as 1000 permutations were run for each model. Models were ordered according to their Bayesian Information Criterion (BIC) and weight in favor of each model. One thousand permutation tests were performed for each model to determine statistical significance. The six unique SNPs from the most significant models for EFS and MRD1 were included in the development of the ACS10 score as described in the results section.\nThe multicenter AML02 clinical trial randomly assigned subjects to receive low dose ara-C (LDAC: 100 mg/m^2; n=91 patients) or high dose ara-C(HDAC: 3 g/m^2; n=75 patients) in combination with daunorubicin and etoposide as the first course of chemotherapy as described above in patient cohort section. Thus, the association of SNPs with outcome within each arm separately was also explored (Table 5).", "key": {"[1]": {"details": "rs4742 (DCTD, WT T, VAR C), MOI R"}, "[2]": {"details": "rs5841 (NME4, WT C, VAR T), MOI D"}, "[3]": {"details": "rs324148 (SLC29A1, WT C, VAR T), MOI A"}, "[4]": {"details": "rs407983 (NME4, WT G, VAR C), MOI A"}, "[5]": {"details": "rs507964 (SLC29A1, WT C, VAR A), MOI R"}, "[6]": {"details": "rs580032 (CDA, WT T, VAR G), MOI D"}, "[7]": {"details": "rs602950 (CDA, WT T, VAR C), MOI A"}, "[8]": {"details": "rs747199 (SLC29A1, WT C, VAR G), MOI D"}, "[9]": {"details": "rs818196 (CDA, WT G, VAR C), MOI D"}, "[10]": {"details": "rs1048977 (CDA, WT C, VAR T), MOI D"}, "[11]": {"details": "rs1138729 (RRM2, WT A, VAR G), MOI D"}, "[12]": {"details": "rs2072671 (CDA, WT A, VAR C), MOI A"}, "[13]": {"details": "rs2396243 (SLC29A1, WT G, VAR A), MOI D"}, "[14]": {"details": "rs3088062 (CMPK1, WT T, VAR C), MOI A"}, "[15]": {"details": "rs3743162 (SLC28A1, WT C, VAR T), MOI D"}, "[16]": {"details": "rs3829540 (NME3, WT G, VAR A), MOI D"}, "[17]": {"details": "rs3925058 (CMPK1, WT T, VAR C), MOI D"}, "[18]": {"details": "rs4247411 (SLC28A1, WT C, VAR T), MOI D"}, "[19]": {"details": "rs4271567 (SLC28A1, WT T, VAR A), MOI R"}, "[20]": {"details": "rs4643786 (DCK, WT T, VAR C), MOI R"}}, "data": [{"smiles": "Nc1ccn([C@@H]2O[C@H](CO)[C@@H](O)[C@@H]2O)c(=O)n1", "note": "[LDAC, cytarabine]", "values": [{"measurement": "EFS HR (95% CI)", "setting": "[1]", "result": "1.49 (0.93-2.4)"}, {"measurement": "MRD1 OR (95% CI)", "setting": "[1]", "result": "1.19 (0.57-2.46)"}, {"measurement": "OS HR (95% CI)", "setting": "[1]", "result": "1.96 (1.2-3.21)"}, {"measurement": "EFS HR (95% CI)", "setting": "[2]", "result": "0.94 (0.68-1.31)"}, {"measurement": "MRD1 OR (95% CI)", "setting": "[2]", "result": "0.7 (0.45-1.08)"}, {"measurement": "OS HR (95% CI)", "setting": "[2]", "result": "0.86 (0.58-1.27)"}, {"measurement": "EFS HR (95% CI)", "setting": "[3]", "result": "1.35 (0.85-2.13)"}, {"measurement": "MRD1 OR (95% CI)", "setting": "[3]", "result": "0.37 (0.17-0.78)"}, {"measurement": "OS HR (95% CI)", "setting": "[3]", "result": "1.14 (0.64-2.04)"}, {"measurement": "EFS HR (95% CI)", "setting": "[4]", "result": "1.36 (0.88-2.09)"}, {"measurement": "MRD1 OR (95% CI)", "setting": "[4]", "result": "0.92 (0.53-1.59)"}, {"measurement": "OS HR (95% CI)", "setting": "[4]", "result": "1.73 (1-2.98)"}, {"measurement": "EFS HR (95% CI)", "setting": "[5]", "result": "1.54 (1.04-2.29)"}, {"measurement": "MRD1 OR (95% CI)", "setting": "[5]", "result": "1.41 (0.76-2.62)"}, {"measurement": "OS HR (95% CI)", "setting": "[5]", "result": "1.1 (0.64-1.88)"}, {"measurement": "EFS HR (95% CI)", "setting": "[6]", "result": "0.86 (0.51-1.44)"}, {"measurement": "MRD1 OR (95% CI)", "setting": "[6]", "result": "1.16 (0.63-2.13)"}, {"measurement": "OS HR (95% CI)", "setting": "[6]", "result": "1.12 (0.65-1.9)"}, {"measurement": "EFS HR (95% CI)", "setting": "[7]", "result": "0.56 (0.33-0.96)"}, {"measurement": "MRD1 OR (95% CI)", "setting": "[7]", "result": "0.57 (0.3-1.08)"}, {"measurement": "OS HR (95% CI)", "setting": "[7]", "result": "0.68 (0.36-1.26)"}, {"measurement": "EFS HR (95% CI)", "setting": "[8]", "result": "0.88 (0.61-1.28)"}, {"measurement": "MRD1 OR (95% CI)", "setting": "[8]", "result": "1.18 (0.75-1.88)"}, {"measurement": "OS HR (95% CI)", "setting": "[8]", "result": "0.55 (0.3-1)"}, {"measurement": "EFS HR (95% CI)", "setting": "[9]", "result": "1.18 (0.85-1.64)"}, {"measurement": "MRD1 OR (95% CI)", "setting": "[9]", "result": "1.28 (0.82-2)"}, {"measurement": "OS HR (95% CI)", "setting": "[9]", "result": "1.09 (0.73-1.62)"}, {"measurement": "EFS HR (95% CI)", "setting": "[10]", "result": "1.48 (1.06-2.08)"}, {"measurement": "MRD1 OR (95% CI)", "setting": "[10]", "result": "1.21 (0.79-1.85)"}, {"measurement": "OS HR (95% CI)", "setting": "[10]", "result": "1.14 (0.77-1.69)"}, {"measurement": "EFS HR (95% CI)", "setting": "[11]", "result": "1.55 (1.11-2.18)"}, {"measurement": "MRD1 OR (95% CI)", "setting": "[11]", "result": "1.19 (0.73-1.94)"}, {"measurement": "OS HR (95% CI)", "setting": "[11]", "result": "1.41 (0.93-2.14)"}, {"measurement": "EFS HR (95% CI)", "setting": "[12]", "result": "0.58 (0.35-0.95)"}, {"measurement": "MRD1 OR (95% CI)", "setting": "[12]", "result": "0.57 (0.31-1.04)"}, {"measurement": "OS HR (95% CI)", "setting": "[12]", "result": "0.68 (0.38-1.23)"}, {"measurement": "EFS HR (95% CI)", "setting": "[13]", "result": "1.56 (1.12-2.16)"}, {"measurement": "MRD1 OR (95% CI)", "setting": "[13]", "result": "0.92 (0.59-1.43)"}, {"measurement": "OS HR (95% CI)", "setting": "[13]", "result": "1.59 (1.07-2.36)"}, {"measurement": "EFS HR (95% CI)", "setting": "[14]", "result": "1.66 (0.99-2.8)"}, {"measurement": "MRD1 OR (95% CI)", "setting": "[14]", "result": "2.37 (1.06-5.28)"}, {"measurement": "OS HR (95% CI)", "setting": "[14]", "result": "1.63 (0.89-3.01)"}, {"measurement": "EFS HR (95% CI)", "setting": "[15]", "result": "0.82 (0.56-1.19)"}, {"measurement": "MRD1 OR (95% CI)", "setting": "[15]", "result": "0.77 (0.48-1.23)"}, {"measurement": "OS HR (95% CI)", "setting": "[15]", "result": "1.07 (0.71-1.64)"}, {"measurement": "EFS HR (95% CI)", "setting": "[16]", "result": "1.23 (0.89-1.71)"}, {"measurement": "MRD1 OR (95% CI)", "setting": "[16]", "result": "1.15 (0.73-1.8)"}, {"measurement": "OS HR (95% CI)", "setting": "[16]", "result": "1.22 (0.82-1.82)"}, {"measurement": "EFS HR (95% CI)", "setting": "[17]", "result": "0.7 (0.51-0.97)"}, {"measurement": "MRD1 OR (95% CI)", "setting": "[17]", "result": "0.6 (0.38-0.95)"}, {"measurement": "OS HR (95% CI)", "setting": "[17]", "result": "0.76 (0.51-1.13)"}, {"measurement": "EFS HR (95% CI)", "setting": "[18]", "result": "1.05 (0.73-1.51)"}, {"measurement": "MRD1 OR (95% CI)", "setting": "[18]", "result": "0.94 (0.59-1.51)"}, {"measurement": "OS HR (95% CI)", "setting": "[18]", "result": "1.03 (0.67-1.59)"}, {"measurement": "EFS HR (95% CI)", "setting": "[19]", "result": "1 (0.69-1.46)"}, {"measurement": "MRD1 OR (95% CI)", "setting": "[19]", "result": "0.76 (0.46-1.28)"}, {"measurement": "OS HR (95% CI)", "setting": "[19]", "result": "1.12 (0.72-1.74)"}, {"measurement": "EFS HR (95% CI)", "setting": "[20]", "result": "2.15 (1.28-3.64)"}, {"measurement": "MRD1 OR (95% CI)", "setting": "[20]", "result": "2.34 (0.76-7.15)"}, {"measurement": "OS HR (95% CI)", "setting": "[20]", "result": "1.7 (0.92-3.11)"}]}]}
